Here are results for 15 molecules from patent US10981932B2, “Macrocyclic indole derivatives” (Bayer Aktiengesellschaft, priority 2016, dated 2021).

Where a name gives a salt, the structure may show the parent alone. Where only a bound is given, the exact number is not on record here.

One test has as its system OPM2. The experiment in a line: Anti-proliferative effect (CellTiter-Glo, 72 h), OPM2. The format is cell-based. The conditions noted are these: Homo sapiens, OPM-2, 72 h, OPM2 cells, median, read-out: IC50 antiproliferation assay OPM2 [M] (median). In a few lines:
(§1)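 Plate cells alongside a separate day 0 reference plate. Read the reference plate at once with CellTiter-Glo. Incubate treated cells 72 h at 37 °C, then read them the same way by luminescence.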
(ATP-based viability assays read luminescence as a measure of living cells.)
As to `Cc1c2c(nn1C)COCCCCn1c(C(=O)O)c(CCCOc3cccc4ccccc34)c3cccc-2c31` (racemic) [Example 1-36, (rac)-2,3-dimethyl-7-[3-(naphthalen-1-yloxy)propyl]-2,10,11,12,13,15-hexahydropyrazolo[4′,3′:9,10][1,6]oxazacycloundecino[8,7,6-hi]indole-8-carboxylic Acid], the IC50 amounted to 1.01e-05 M.
For `Cc1nn(C)c2c1-c1cccc3c(CCCOc4cccc5ccccc45)c(C(=O)O)n(c13)CCCCOCC2` (racemic) [Example 017, (rac)-1,3-dimethyl-7-[3-(1-naphthyloxy)propyl]-10,11,12,13,15,16-hexahydro-1H-pyrazolo[4′,3′:9,10][1,6]oxazacyclododecino[8,7,6-hi]indole-8-carboxylic Acid], the IC50 came out at 2.78e-05 M.
Regarding `CC(C)c1c2c(nn1C)CN(C)CCCn1c(C(=O)O)c(CCCOc3cccc4ccccc34)c3cccc-2c31` (racemic) [Example 113, (rac)-7,10-dimethyl-1-[3-(naphthalen-1-yloxy)propyl]-11-(propan-2-yl)-4,5,6,7,8,10-hexahydropyrazolo[3′,4′:7,8][1,5]diazecino[9,10,1-hi]indole-2-carboxylic Acid], the IC50 is 1.42e-05 M.
Take `CCc1c2c(nn1C)CN(C)CCCn1c(C(=O)O)c(CCCOc3cccc4ccccc34)c3cccc-2c31` (racemic) [Example 141, (rac)-11-ethyl-7,10-dimethyl-1-[3-(1-naphthyloxy)propyl]-4,5,6,7,8,10-hexahydropyrazolo[3′,4′:7,8][1,5]diazecino[9,10,1-hi]indole-2-carboxylic Acid]: the IC50 is 9.12e-06 M.
Turning to `CCc1c2c(nn1C)CN(C)CCCn1c(C(=O)O)c(CCCOc3cccc4ccccc34)c3ccc(C)c-2c31` (racemic) [Example 144, (rac)-11-ethyl-7,10,12-trimethyl-1-[3-(1-naphthyloxy)propyl]-4,5,6,7,8,10-hexahydropyrazolo[3′,4′:7,8][1,5]diazecino[9,10,1-hi]indole-2-carboxylic Acid], the IC50 was found to be 5.52e-06 M.
On the same count and under the same terms, the result for `CCc1c2c(nn1C)COCCCCn1c(C(=O)O)c(CCCOc3cccc4ccccc34)c3ccc(C)c-2c31` (racemic) [Example 153, (rac)-3-Ethyl-2,4-dimethyl-7-[3-(1-naphthyloxy)propyl]-2,10,11,12,13,15-hexahydropyrazolo[4′,3′:9,10][1,6]oxazacycloundecino[8,7,6-hi]indole-8-carboxylic Acid] reads 8.4e-06 M; that for `CC(C)OCc1nn(C)c2c1-c1cccc3c(CCCOc4cccc5ccccc45)c(C(=O)O)n(c13)CCCCN(C)C2` (single isomer, unassigned) [Example 1-74, 1,14-dimethyl-7-[3-(naphthalen-1-yloxy)propyl]-3-[(propan-2-yloxy)methyl]-10,11,12,13,14,15-hexahydro-1H-pyrazolo[3′,4′:8,9][1,6]diazacycloundecino[10,11,1-hi]indole-8-carboxylic Acid], 1.6e-05 M.
For the molecule `COCCn1nc2c(c1CN1CCOCC1)-c1cccc3c(CCCOc4cccc5ccccc45)c(C(=O)O)n(c13)CCCN(C)C2` (single isomer, unassigned; enantiomer 1) [Example 057, 10-(2-methoxyethyl)-7-methyl-11-(morpholin-4-ylmethyl)-1-[3-(naphthalen-1-yloxy)propyl]-4,5,6,7,8,10-hexahydropyrazolo[3′,4′:7,8][1,5]diazecino[9,10,1-hi]indole-2-carboxylic Acid (Enantiomer 1)], the IC50 is more than 3.3e-05 M.
Consider `Cc1c2c(nn1CCN1CCOCC1)CN(C)CCCn1c(C(=O)O)c(CCCOc3cccc4ccccc34)c3cccc-2c31` (single isomer, unassigned; enantiomer 1) [Example 060, 7,11-dimethyl-10-[2-(morpholin-4-yl)ethyl]-1-[3-(naphthalen-1-yloxy)propyl]-4,5,6,7,8,10-hexahydropyrazolo[3′,4′:7,8][1,5]diazecino[9,10,1-hi]indole-2-carboxylic Acid (Enantiomer 1)], for which the IC50 came to 1.27e-05 M.

The test is the same for the next values; noted with them: OPM2 cells, median, read-out: IC50 antiproliferation assay OPM2 [M] (median).
For `Cc1nn(C)c2c1-c1cccc3c(CCCOc4cccc5ccccc45)c(C(=O)O)n(c13)CCCCOCC2` (racemic) [Example 017, (rac)-1,3-dimethyl-7-[3-(1-naphthyloxy)propyl]-10,11,12,13,15,16-hexahydro-1H-pyrazolo[4′,3′:9,10][1,6]oxazacyclododecino[8,7,6-hi]indole-8-carboxylic Acid], the IC50 is more than 3.3e-05 M.
For the molecule `Cn1nc(COc2ccc(N3CCN(C(=O)C4CC4)CC3)cc2)c2c1COCCCCn1c(C(=O)O)c(CCCOc3cccc4ccccc34)c3cccc-2c31` (single isomer, unassigned; enantiomer 1) [Example 1-22, 3-({4-[4-(cyclopropylcarbonyl)piperazin-1-yl]phenoxy}methyl)-1-methyl-7-[3-(naphthalen-1-yloxy)propyl]-1,10,11,12,13,15-hexahydropyrazolo[4′,3′:9,10][1,6]oxazacycloundecino[8,7,6-hi]indole-8-carboxylic Acid (Enantiomer 1)], the IC50 stood at 2.56e-06 M.
Take `Cc1nn(C)c2c1-c1cccc3c(CCCOc4cccc5ccccc45)c(C(=O)O)n(c13)CCCN(C)C2` (single isomer, unassigned; enantiomer 1) [Example 1-31, 7,9,11-trimethyl-1-[3-(naphthalen-1-yloxy)propyl]-4,5,6,7,8,9-hexahydropyrazolo[3′,4′:7,8][1,5]diazecino[9,10,1-hi]indole-2-carboxylic Acid-N-ethylethanamine Salt (Enantiomer 1)]: the IC50 stood at 1.05e-05 M.
With `Cc1c2c(nn1C)COCCCCn1c(C(=O)O)c(CCCOc3cccc4ccccc34)c3cccc-2c31` (single isomer, unassigned; enantiomer 1) [Example 1-37, (+)-2,3-dimethyl-7-[3-(naphthalen-1-yloxy)propyl]-2,10,11,12,13,15-hexahydropyrazolo[4′,3′:9,10][1,6]oxazacycloundecino[8,7,6-hi]indole-8-carboxylic Acid (Enantiomer 1)], the IC50 came to 6.53e-06 M.

The test system of another test is MV-4-11. In words: Anti-proliferative effect (CellTiter-Glo, 72 h), MV-4-11. The format is cell-based. The conditions noted are these: Homo sapiens, MV4-11, 72 h, MV-4-11 cells, median, read-out: IC50 antiproliferation assay MV-4-11 [M] (median). In a few lines: as §1
In the case of `Cc1nn(C)c2c1-c1cccc3c(CCCOc4cccc5ccccc45)c(C(=O)O)n(c13)CCCN(C)C2` (single isomer, unassigned; enantiomer 1) [Example 1-31, 7,9,11-trimethyl-1-[3-(naphthalen-1-yloxy)propyl]-4,5,6,7,8,9-hexahydropyrazolo[3′,4′:7,8][1,5]diazecino[9,10,1-hi]indole-2-carboxylic Acid-N-ethylethanamine Salt (Enantiomer 1)], the IC50 turned out to be 2.61e-06 M.
Consider `Cc1c2c(nn1C)COCCCCn1c(C(=O)O)c(CCCOc3cccc4ccccc34)c3cccc-2c31` (single isomer, unassigned; enantiomer 1) [Example 1-37, (+)-2,3-dimethyl-7-[3-(naphthalen-1-yloxy)propyl]-2,10,11,12,13,15-hexahydropyrazolo[4′,3′:9,10][1,6]oxazacycloundecino[8,7,6-hi]indole-8-carboxylic Acid (Enantiomer 1)], for which the IC50 stood at 4.02e-06 M.
`COCc1nn(C)c2c1-c1cccc3c(CCCOc4cccc5ccccc45)c(C(=O)O)n(c13)CCCN(C)C2` (single isomer, unassigned; enantiomer 2) [Example 1-104, 11-(methoxymethyl)-7,9-dimethyl-1-[3-(1-naphthyloxy)propyl]-4,5,6,7,8,9-hexahydropyrazolo[3′,4′:7,8][1,5]diazecino[9,10,1-hi]indole-2-carboxylic Acid (Enantiomer 2)]: the IC50 worked out at 4.44e-06 M.
On the same count and under the same terms, the result for `Cc1ccc2c(CCCOc3cccc4ccccc34)c(C(=O)O)n3c2c1-c1c(nn(C)c1C)CN(C)CCC3` (single isomer, unassigned; enantiomer 2) [Example 074, 7,10,11,12-tetramethyl-1-[3-(naphthalen-1-yloxy)propyl]-4,5,6,7,8,10-hexahydropyrazolo[3′,4′:7,8][1,5]diazecino[9,10,1-hi]indole-2-carboxylic Acid (Enantiomer 2)] reads 7.04e-06 M.

Still in this test, the particulars now being: MV-4-11 cells, median, read-out: IC50 antiproliferation assay MV-4-11 [M] (median).
For `Cc1nn(C)c2c1-c1cccc3c(CCCOc4cccc5cc(F)ccc45)c(C(=O)O)n(c13)CCCOC2` (single isomer, unassigned; enantiomer 1) [Example 047, 1-{3-[(6-fluoronaphthalen-1-yl)oxy]propyl}-9,11-dimethyl-5,6,8,9-tetrahydro-4H-pyrazolo[4′,3′:8,9][1,5]oxazecino[7,6,5-hi]indole-2-carboxylic acid-N-ethylethanamine Salt (Enantiomer 1)], the IC50 is 5.38e-06 M.
